The source of these data is patent US8580918B2, “Peptidic GLP-2 agonists” (Ferring B.V., priority 2009, dated 2013).

Molecules are shown by their SMILES. Where a SMILES comes first, the peptide text is derived from it. [ ]: non-standard residue; d: D form. The star is where a group is joined. X1 = NC(=O)CCOCCOCCOCCOCCOCCOCCNC(=O)COCC(=O)NCCCOCCOCCOCCCN*; X2 = NC(=O)COCC(=O)NCCCOCCOCCOCCCN*; Nle = CCCC[C@H](N)C(=O)O

A short description of this series: Pharmacokinetics in rats after intravenous bolus injection (systemic clearance). Format: in vivo. The note with it: rat, plasma, 0.2 mg FB/kg, adult male Sprague-Dawley rats, i.v. bolus, dose 0.20 mg FB/kg, read-out: CL (ml/kg/min) Average. Put shortly:
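Systemic clearance from noncompartmental analysis as dose per kg over trapezoidal AUC extrapolated to infinity, mean and SD across animals. Plasma (K2EDTA) levels by LC/MS/MS after single IV jugular-vein bolus, 0.1-1.0 mg/kg, in 3-4 cannulated male Sprague-Dawley rats.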
Consider `CCCC[C@H](NC(=O)[C@H](CCC(=O)O)NC(=O)[C@H](CC(=O)O)NC(=O)[C@H](CO)NC(=O)[C@H](Cc1ccccc1)NC(=O)[C@H](CO)NC(=O)CNC(=O)[C@H](CC(=O)O)NC(=O)CNC(=O)[C@@H](N)Cc1cnc[nH]1)C(=O)N[C@H](Cc1ccccc1)C(=O)N[C@H](C(=O)N[C@H](C(=O)N[C@@H](CC(C)C)C(=O)N[C@@H](CC(=O)O)C(=O)N[C@@H](CC(C)C)C(=O)N[C@@H](CC(C)C)C(=O)N[C@@H](C)C(=O)N[C@@H](C)C(=O)N[C@@H](CCCNC(=N)N)C(=O)N[C@@H](CC(=O)O)C(=O)N[C@@H](Cc1ccccc1)C(=O)N[C@H](C(=O)N[C@@H](CC(N)=O)C(=O)N[C@@H](Cc1c[nH]c2ccccc12)C(=O)N[C@@H](CC(C)C)C(=O)N[C@H](C(=O)N[C@@H](CCC(N)=O)C(=O)N[C@H](C(=O)N[C@@H](CCCCN)C(=O)N[C@H](C(=O)N[C@H](C(=O)N[C@@H](CC(=O)O)C(=O)O)[C@@H](C)O)[C@@H](C)CC)[C@@H](C)O)[C@@H](C)CC)[C@@H](C)CC)[C@@H](C)CC)[C@@H](C)O` [Compound 59, [Gly2,Nle10,D-Phe11,Leu16] hGLP-2(1-33)-OH] (H-HGDGSFSDE[Nle][dF]TILDLLAARDFINWLIQTKITD-OH), for which the clearance was found to be 0.22 mL/kg/min. In the case of `CCCC[C@H](NC(=O)[C@H](CCC(=O)O)NC(=O)[C@H](CC(=O)O)NC(=O)[C@H](CO)NC(=O)[C@H](Cc1ccccc1)NC(=O)[C@H](CO)NC(=O)CNC(=O)[C@H](CC(=O)O)NC(=O)CNC(=O)[C@@H](N)Cc1c[nH]cn1)C(=O)N[C@H](Cc1ccccc1)C(=O)N[C@H](C(=O)N[C@H](C(=O)N[C@@H](CC(C)C)C(=O)N[C@@H](CC(=O)O)C(=O)N[C@@H](Cc1ccccc1)C(=O)N[C@@H](CC(C)C)C(=O)N[C@@H](C)C(=O)N[C@@H](C)C(=O)N[C@@H](CCCNC(=N)N)C(=O)N[C@@H](CC(=O)O)C(=O)N[C@@H](Cc1ccccc1)C(=O)N[C@H](C(=O)N[C@@H](CC(N)=O)C(=O)N[C@@H](Cc1c[nH]c2ccccc12)C(=O)N[C@@H](CC(C)C)C(=O)N[C@H](C(=O)N[C@@H](CCC(N)=O)C(=O)N[C@H](C(=O)N[C@@H](CCCCN)C(=O)N[C@H](C(=O)N[C@H](C(=O)N[C@@H](CC(=O)O)C(=O)NCCCOCCOCCOCCCNC(=O)COCC(N)=O)[C@@H](C)O)[C@@H](C)CC)[C@@H](C)O)[C@@H](C)CC)[C@@H](C)CC)[C@@H](C)CC)[C@@H](C)O` [Compound 60, [Gly2,Nle10,D-Phe11,Phe16] hGLP-2(1-33)-NH—CH2—((CH2)2O)3—(CH2)3—NH—C(O)—CH2—O—CH2—C(O)—NH2] (H-HGDGSFSDE[Nle][dF]TILDFLAARDFINWLIQTKITD-X2), the clearance is 0.29 mL/kg/min.

Take `CCCC[C@H](NC(=O)[C@H](CCC(=O)O)NC(=O)[C@H](CC(=O)O)NC(=O)[C@H](CO)NC(=O)[C@H](Cc1ccccc1)NC(=O)[C@H](CO)NC(=O)CNC(=O)[C@H](CC(=O)O)NC(=O)CNC(=O)[C@@H](N)Cc1c[nH]cn1)C(=O)N[C@H](Cc1ccccc1)C(=O)N[C@H](C(=O)N[C@H](C(=O)N[C@@H](CC(C)C)C(=O)N[C@@H](CC(=O)O)C(=O)N[C@@H](Cc1ccccc1)C(=O)N[C@@H](CC(C)C)C(=O)N[C@@H](C)C(=O)N[C@@H](C)C(=O)N[C@@H](CCCNC(=N)N)C(=O)N[C@@H](CC(=O)O)C(=O)N[C@@H](Cc1ccccc1)C(=O)N[C@H](C(=O)N[C@@H](CC(N)=O)C(=O)N[C@@H](Cc1c[nH]c2ccccc12)C(=O)N[C@@H](CC(C)C)C(=O)N[C@H](C(=O)N[C@@H](CCC(N)=O)C(=O)N[C@H](C(=O)N[C@@H](CCCCN)C(=O)N[C@H](C(=O)N[C@H](C(=O)N[C@@H](CC(=O)O)C(=O)NCCCOCCOCCOCCCNC(=O)COCC(=O)NCCOCCOCCOCCOCCOCCOCCC(N)=O)[C@@H](C)O)[C@@H](C)CC)[C@@H](C)O)[C@@H](C)CC)[C@@H](C)CC)[C@@H](C)CC)[C@@H](C)O` [Compound 61, [Gly2,Nle10,D-Phe11,Phe16] hGLP-2(1-33)-NH—CH2—((CH2)2O)3—(CH2)3—NH—C(O)—CH2—O—CH2—C(O)—NH—((CH2)2O)6—(CH2)2—C(O)—NH2] (H-HGDGSFSDE[Nle][dF]TILDFLAARDFINWLIQTKITD-X1): the clearance amounted to 0.16 mL/kg/min. As for `CCCC[C@H](NC(=O)[C@H](CCC(=O)O)NC(=O)[C@H](CC(=O)O)NC(=O)[C@H](CO)NC(=O)[C@H](Cc1ccccc1)NC(=O)[C@H](CO)NC(=O)CNC(=O)[C@H](CC(=O)O)NC(=O)CNC(=O)[C@@H](N)Cc1c[nH]cn1)C(=O)N[C@H](Cc1ccccc1)C(=O)N[C@H](C(=O)N[C@H](C(=O)N[C@@H](CC(C)C)C(=O)N[C@@H](CC(=O)O)C(=O)N[C@@H](Cc1ccccc1)C(=O)N[C@@H](CC(C)C)C(=O)N[C@@H](C)C(=O)N[C@@H](C)C(=O)N[C@@H](CCCNC(=N)N)C(=O)N[C@@H](CC(=O)O)C(=O)N[C@@H](Cc1ccccc1)C(=O)N[C@H](C(=O)N[C@@H](CC(N)=O)C(=O)N[C@@H](Cc1c[nH]c2ccccc12)C(=O)N[C@@H](CC(C)C)C(=O)N[C@H](C(=O)N[C@@H](CCC(N)=O)C(=O)N[C@H](C(=O)N[C@@H](CCCCN)C(=O)N[C@H](C(=O)N[C@H](C(=O)N[C@@H](CC(=O)O)C(N)=O)[C@@H](C)O)[C@@H](C)CC)[C@@H](C)O)[C@@H](C)CC)[C@@H](C)CC)[C@@H](C)CC)[C@@H](C)O` [Compound 63, [Gly2,Nle10,D-Phe11,Phe16] hGLP-2(1-33)-NH2] (H-HGDGSFSDE[Nle][dF]TILDFLAARDFINWLIQTKITD-NH2), the clearance is 0.24 mL/kg/min.
